Measured values taken from patent US10889551B2, “Biemamides and related scaffolds as inhibitors of transforming growth factor-beta signaling” (Wisconsin Alumni Research Foundation, priority 2018, dated 2021).

How the values were obtained:
TGF-β signaling = assay: MLEC luciferase assay (TGF-β activated luciferase, Bright-Glo); format: cell-based, mink; conditions: purified compounds, 24 hours with TGF-β, read-out: IC50, inhibition of TGF-β (MLEC-based TGF-β inhibition assay)
Procedure: A total of 3840 fractions, plated on 12 384-well plates, were assayed in a high throughput screen at 10 μM final concentration. For purposes of concentration calculations we set the average molecular weight of each compound in the library at 500 Da. Each fraction had its different mass, therefore different volumes were used for each well in the screening. Z′ for the plates were between 0.53 and 0.45. Initial hits were identified as compounds that inhibited the Bright-Glo signal (see below MLEC assay) by more than 84%. Using this criteria, we identified 48 compounds of interest. The 48 initial hits were then re-screened in a 10 point dose response curve in duplicate. The compounds were assayed for both luciferase inhibition and toxicity using CellTiter-Glo (Promega). Of the 48 compounds identified in the HTS assay, 19 inhibited TGF-β activated luciferase activity without inducing mink lung cell toxicity. MLEC were plated into 384-well plates at a density of 5000 cells/well using Micro-flow (Biotek) multi well reagent dispenser and incubated overnight at 37° C. in the CO2 incubator. 1 μM control SB431542 or 10 μM of compounds 1-5 were added to the wells using the ECHO 550 (Labcyte), then added 10 μL media with […] TGF-β using Micro-flow and incubated for 24 hours at 37° C. 25 μL Bright-Glo (Promega) was added using Micro-flow, and agitated for 4 minutes. The Enspire (Perkin Elmer) plate reader was used to measure the TGF-β response in each well. The luciferase activity was reported as relative light units (RLU), and the readout of each tested fraction was then normalized against negative controls. Dose-response TGF-β data and cytotoxicity assays using fibroblasts were employed to more rigorously evaluate the 48 initial hits. […] Chemical analysis of the secondary metabolites in the active wells/extract fractions of WMMA2266 led to the discovery of five pyrimidinedione derivatives, biemamides A-E (1-5).

NMuMG epithelial cells = assay: TGF-β induced EMT in NMuMG cell line (imaging assay); format: cell-based, mouse; conditions: 50 pM TGF-β, 72 h
Procedure: Mouse mammary epithelial cell line NMuMG was purchased from American Tissue Culture Collection (ATCC, Manassas, Va.), and NMuMG were cultured as per ATCC recommendations. Imaging assay: Cells were plated in glass bottomed 96 well imaging plates, at a density of 1,000 cells per well, and were allowed to attach overnight. Cells (with exception of 3 control wells) were treated with 50 pm TGF-β. Along with the TGF-β test compounds 1-5 were added in at various doses, and a set of wells was treated with a known TGF-β inhibitor SB431542 at 1 μM.
In the absence of TGF-β, NMuMG cells form an epithelial shape; incubation with 50 pM TGF-β for 72 h induces a more fibroblast-like, spindle shaped morphology indicative of mesenchymal cells (FIGS. 3A-3D). […] Nine concentrations (160-0.625 nM) of compounds 1-5 were tested for their ability to impact TGF-β signaling in NMuMG cells.

C. elegans = C. elegans assay (development and body length); format: in vivo; conditions: three concentrations spanning 1 μM→100 μM
Procedure: Synchronized cultures of C. elegans were obtained using the following procedure: a mixed population of worms containing many gravid adults was washed off of two 10 cm NGM plates using distilled water. C. elegans were pelleted at 1000 g in a 15 mL conical tube and the supernatant was discarded. A mix of 3 mL distilled water, 1 mL bleach, and 1 mL 1 M NaOH was added. The tube was inverted for several minutes until it could be observed that the gravid adults had released their eggs. The eggs were pelleted at 1000 g, washed three times with distilled water and suspended in 10 mL of M9 (3.0 g KH2PO4, 6.0 g Na2HPO4, 0.5 g NaCl, 1.0 g NH4Cl into 1 L distilled water). The egg suspension was rotated overnight in a 50 mL conical tube during which the embryos hatched and arrested at the L1 stage. The C. elegans were washed twice and diluted with M9 to reach an approximate concentration of 20 worms/10 μL. Each well in a 96-well plate was prepared by adding 10 μL worm suspension, 0.5 μg OP50 E. coli, 1 μL DMSO (control) or 1 μL DMSO with compounds, and brought to a final volume of 100 μL with M9 plus cholesterol (5 μg/mL). The plates were incubated in a humidified box at 23° C. for 72 hours. To immobilize worms to measure body length the worms were killed by immersing the 96-well plate in a 70° C. water bath for several minutes. Each experiment was performed in triplicate within each plate. […]

Molecule	IC50 (TGF-β signaling) [nM]	inhibition of TGF-β-induced EMT (cell morphology) (NMuMG epithelial cells; nine concentrations 160-0.625 nM (FIG. 3C: 160 nM compound 1))	inhibition of TGF-β-induced EMT (cell morphology), positive control (NMuMG epithelial cells; 1 μM)	C. elegans size (C. elegans)
Biemamide A [Compound 1]	51.5	cells maintained their epithelial phenotype		
NC(=O)c1ccc(-c2nc(-c3ccc4c(c3)OCO4)c(-c3ccccn3)[nH]2)cc1 [SB431542, reference compound]	411		blocked TGF-β-induced transition of the NMuMG epithelial cells into mesenchymal cells	did not alter C. elegans size
Biemamide B [Compound 2]	18.7			
Biemamide C [Compound 3]	51.5			
Biemamide D [Compound 4]	102			
Biemamide E [Compound 5]	83.2			
